“Also recorded” adds a separate entry of the source.
Test system: microorganisms
Assay: Targeting peptide binding to target microorganisms (Tables 3, 10, 12)
Conditions: microorganism(s) the targeting peptide binds; binding in aqueous buffers varied with peptide solubility, preferably 1x PBS

| Substance | Target(s) |
| --- | --- |
| PF-239 (PKHNVVTGVSVDLDYKP; Peptide with targeting and/or antimicrobial activity) | S. mutans; also recorded: E. coli |
| PF-240 (RITEVPPDEHSDR; Peptide with targeting and/or antimicrobial activity) | S. mutans; also recorded: E. coli |
| PF-242 (KLFEDPLIKSKAVENFQTTWHEQCLAKELAKNM; Peptide with targeting and/or antimicrobial activity) | S. mutans; also recorded: E. coli |
| PF-244 (HMRTISYLLAFAKFSLFIPPKQSLKRL; Peptide with targeting and/or antimicrobial activity) | S. epidermidis; also recorded: M. luteus; also recorded: P. aeruginosa; also recorded: A. baumannii |
| PF-245 (MNDVKPVVQPKQTLKAFLVQLLSVRAGVYIKQNNQLPKTKG; Peptide with targeting and/or antimicrobial activity) | S. epidermidis; also recorded: M. luteus; also recorded: P. aeruginosa; also recorded: A. baumannii |
| PF-246 (QPDEKAEFFDPSLDKVYRHPTFYHIPDGIEHM; Peptide with targeting and/or antimicrobial activity) | S. mutans |
| PF-247 (ETAASETH; Peptide with targeting and/or antimicrobial activity) | S. epidermidis |
| PF-248 (ILSKLWFWMINSLGVVLLVSYWLLAKWGVA; Peptide with targeting and/or antimicrobial activity) | S. mutans; also recorded: S. epidermidis; also recorded: M. luteus; also recorded: E. coli; also recorded: P. aeruginosa; also recorded: A. baumannii |
| PF-253 (VRDDDS; Peptide with targeting and/or antimicrobial activity) | S. epidermidis; also recorded: M. luteus |
| PF-254 (FIYGVGFVPHFWLWKWLFSPWIAWPLMLLGYYIWFLT; Peptide with targeting and/or antimicrobial activity) | S. epidermidis; also recorded: M. luteus; also recorded: P. aeruginosa; also recorded: A. baumannii |
| PF-256 (EYFKQVYVKNEKIYSFWICKDLSPKEAAKRAEDILVKLK; Peptide with targeting and/or antimicrobial activity) | S. epidermidis |
| PF-259 (LPFSKIGRRVSYKKKDVLKYEQSKTVLNTAQLATV; Peptide with targeting and/or antimicrobial activity) | S. epidermidis; also recorded: P. aeruginosa; also recorded: A. baumannii |
| PF-262 (DPHSEIDVTRYCQLHHFTCQTMQISEREFHYLIETQ; Peptide with targeting and/or antimicrobial activity) | S. mutans; also recorded: S. epidermidis; also recorded: M. luteus; also recorded: E. coli; also recorded: P. aeruginosa; also recorded: A. baumannii |
| PF-263 (NLKKCPC; Peptide with targeting and/or antimicrobial activity) | S. epidermidis; also recorded: M. luteus; also recorded: A. baumannii |
| PF-265 (MKTLFFPLFLIIFVLIIQALDQSYQKKIGISKPQKHPEFMQ; Peptide with targeting and/or antimicrobial activity) | S. epidermidis; also recorded: M. luteus; also recorded: A. baumannii |
| PF-266 (DQEKKNKTEESTEQ; Peptide with targeting and/or antimicrobial activity) | S. mutans |
| PF-267 (SDDKRTD; Peptide with targeting and/or antimicrobial activity) | M. luteus |
| PF-268 (EVLLSDLRPDIFSET; Peptide with targeting and/or antimicrobial activity) | S. mutans |
| PF-275 (LVSGVANTVKNTAHTVGNTAKHAGHVAADTTVKATKKQQVK; Peptide with targeting and/or antimicrobial activity) | S. mutans |
| PF-279 (SHIGFISISACLAVLLGIARLFVWTWVKFFA; Peptide with targeting and/or antimicrobial activity) | S. mutans; also recorded: S. epidermidis; also recorded: M. luteus; also recorded: E. coli; also recorded: P. aeruginosa; also recorded: A. baumannii |
| PF-281 (SYNTYYNKLIHGQRTPDGM; Peptide with targeting and/or antimicrobial activity) | S. mutans; also recorded: E. coli |
| PF-282 (QNNDTSAWCGSAHKNGNS; Peptide with targeting and/or antimicrobial activity) | S. mutans |
| PF-284 (MRYITYSLIPRLLSKKVIHQQ; Peptide with targeting and/or antimicrobial activity) | C. difficile |
| PF-285 (VPAKLLRVIDEIPE; Peptide with targeting and/or antimicrobial activity) | S. mutans |
| PF-288 (IYQLLNIEYSEDD; Peptide with targeting and/or antimicrobial activity) | S. mutans; also recorded: E. coli |
| PF-291 (DVDGAIESEL; Peptide with targeting and/or antimicrobial activity) | S. mutans; also recorded: E. coli |

| Substance | Target(s) |
| --- | --- |
| PF-295 (NIQVYESECGNYIFKKSDESFLIDIFDKNGTH; Peptide with targeting and/or antimicrobial activity) | C. difficile |
| PF-299 (LATKLKYEKEHKKM; Peptide with targeting and/or antimicrobial activity) | B. subtilis |
| PF-300 (VKDVLLELFNKIIGA; Peptide with targeting and/or antimicrobial activity) | B. subtilis; also recorded: C. difficile |
| PF-304 (LVKDTSDIKNDLNNIEIVTSKNSNDIAKLKSVK; Peptide with targeting and/or antimicrobial activity) | S. mutans |
| PF-308 (QQYLILDRM; Peptide with targeting and/or antimicrobial activity) | C. difficile |
| PF-309 (GIPGMTAAPAEENEQEENADEE; Peptide with targeting and/or antimicrobial activity) | S. mutans; also recorded: E. coli |
| PF-311 (IDAVTKKKTTCMIRAPTKIPIAHTDN; Peptide with targeting and/or antimicrobial activity) | C. difficile |
| PF-314 (ECLKKAIKSKALNKAFKIDVPDEVYDNLLMELEEYEK; Peptide with targeting and/or antimicrobial activity) | S. mutans |
| PF-317 (LILVSDI; Peptide with targeting and/or antimicrobial activity) | S. mutans |
| PF-320 (DSGYYALLENKEERVVWDGEVVANNIFNNLWIVVNKVKTG; Peptide with targeting and/or antimicrobial activity) | S. mutans; also recorded: E. coli |
| PF-323 (ARESIEKSHVPVDATIVGVVDSFEVFDE; Peptide with targeting and/or antimicrobial activity) | S. mutans |
| PF-324 (HFSLL; Peptide with targeting and/or antimicrobial activity) | C. difficile |
| PF-325 (LTIDEKLRNHR; Peptide with targeting and/or antimicrobial activity) | S. mutans; also recorded: E. coli |
| PF-326 (VIVGNLGAQKEKRNDTPISAKKDIMGDKTVRVRADLHH; Peptide with targeting and/or antimicrobial activity) | S. mutans; also recorded: E. coli |
| PF-328 (NGNEKAFSEVENLVK; Peptide with targeting and/or antimicrobial activity) | S. mutans |
| PF-329 (IGILFDKSVRKY; Peptide with targeting and/or antimicrobial activity) | S. epidermidis |
| PF-333 (YMTKKLVEMAEQQMAGKSNR; Peptide with targeting and/or antimicrobial activity) | S. mutans |
| PF-334 (QQYLILDRM; Peptide with targeting and/or antimicrobial activity) | S. epidermidis; also recorded: C. difficile |
| PF-337 (YMTKKLVEMAERQMAGK; Peptide with targeting and/or antimicrobial activity) | S. epidermidis |
| PF-338 (KGTSCPDQLSKAIRQSI; Peptide with targeting and/or antimicrobial activity) | S. mutans |
| PF-340 (VKDVLLELFNKIIGA; Peptide with targeting and/or antimicrobial activity) | S. mutans; also recorded: E. coli |
| PF-348 (ESASAAEWYNPNMNVKKAICMG; Peptide with targeting and/or antimicrobial activity) | B. subtilis; also recorded: E. coli; also recorded: P. aeruginosa; also recorded: C. albicans; also recorded: E. faecalis; also recorded: C. jejuni |
| PF-351 (YLFFKGKKVAEEEATKDEVKR; Peptide with targeting and/or antimicrobial activity) | S. mutans |
| PF-352 (RVKKIG; Peptide with targeting and/or antimicrobial activity) | C. jeikeium |
| PF-359 (MTVMEDPGSEQRNKIQSPMKGEDFSALFGR; Peptide with targeting and/or antimicrobial activity) | S. epidermidis and B. fragilis and P. aeruginosa and C. albicans and MRSA and E. faecalis and C. jeikeium |

Reference: US20110039763A1, “TARGETED ANTIMICROBIAL MOIETIES” (C3 JIAN, INC., priority 2009, published 2011)
